# How the values were obtained:
# Test in all cases: drug sensitivity score (DSS) (DSS (unitless, 0-50 scale)); higher = more sensitive (stronger viability inhibition); extreme values may be limits of the assay
# Details in all cases: 72 h; culture: 2D
# FM-MEL-3 = tested on: FM-MEL-3
# Procedure, shortened: (§1)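 Patient-derived melanoma cultures and melanoma cell lines were grown in 2D in 384-well plates with a 527-compound oncology library at five concentrations spanning a 10,000-fold range, with 1000–1500 cells per well for the cultures. CellTiter-Glo luminescence gave viability after 72 h at 37 °C. The drug sensitivity score is a modified area-under-curve measure derived from dose-response curves fitted in the in-house Breeze software.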
# WM165 = tested on: WM165
# Procedure, shortened: as §1
# WM852 = tested on: WM852
# Procedure, shortened: as §1
# FM-MEL-2 = tested on: FM-MEL-2
# Procedure, shortened: as §1
# SK-MEL-2 = tested on: SK-MEL-2
# Procedure, shortened: as §1
# Bowes = tested on: Bowes
# Procedure, shortened: as §1
# SK-MEL-28 = tested on: SK-MEL-28
# Procedure, shortened: as §1
# FM-MEL-6 = tested on: FM-MEL-6
# Procedure, shortened: as §1
Structure (SMILES),drug sensitivity score (FM-MEL-3),drug sensitivity score (WM165),drug sensitivity score (WM852),drug sensitivity score (FM-MEL-2),drug sensitivity score (SK-MEL-2),drug sensitivity score (Bowes),drug sensitivity score (SK-MEL-28),drug sensitivity score (FM-MEL-6)
CN1CC[C@H](c2c(O)cc(O)c3c(=O)cc(-c4ccccc4Cl)oc23)[C@H](O)C1 [Alvocidib],18.6,20.4,16.4,12.6,16.9,19.9,18.1,17.7
Cc1nc(NC(=O)N2CCC[C@H]2C(N)=O)sc1-c1ccnc(C(C)(C)C(F)(F)F)c1 [Alpelisib],2.7,0.6,1.9,2.1,0,0.3,1.2,0.7
Oc1ncnc2[nH]ncc12 [Allopurinol],0,0,0,0,0,0,0,0
Cc1ccc(F)c(NC(=O)Nc2ccc(-c3cccc4[nH]nc(N)c34)cc2)c1 [Linifanib],0,0,0,0.1,0,2.2,0,0
O=C(O)CC[C@H]1CC[C@@](c2cc(F)ccc2F)(S(=O)(=O)c2ccc(Cl)cc2)CC1 [MK-0752],0,0,0,0,0,0,0,0
O=c1[nH]cc(F)c(=O)[nH]1 [Fluorouracil],0.4,2.3,0,1.7,0,0,0.7,0.7
O=C(O)c1ccc(CN2CCC(CN[C@@H]3C[C@H]3c3ccccc3)CC2)cc1,0,0,0,0,0,0,0,0
c1cc(CN2CCCNCCNCCCNCC2)ccc1CN1CCCNCCNCCCNCC1 [Plerixafor],0,0,0,0,0,0,0,0
CNC(=O)c1nn(C)c2c1C(C)(C)Cc1cnc(Nc3ccc(N4CCN(C)CC4)cc3)nc1-2 [Milciclib],7.5,12,5.1,6.5,7,11,8.7,9
O=C(O)c1ccc2c(c1)nc(Nc1cccc(Cl)c1)c1ccncc12 [Silmitasertib],9.2,7.3,2.4,3.2,2.7,3.3,2.3,3.4
CCOC(=O)C1=CCCC[C@H]1S(=O)(=O)Nc1ccc(F)cc1Cl [Resatorvid],0,0,0,0,0,0,0,0
COc1cc(Nc2c(C#N)cnc3cc(OCCCN4CCN(C)CC4)c(OC)cc23)c(Cl)cc1Cl [Bosutinib],3.2,8.4,7.6,5,4.7,8.2,8.7,4.9
COc1cc2ncnc(Nc3ccc(F)c(Cl)c3)c2cc1OCCCN1CCOCC1 [Gefitinib],2.4,4.6,3,2.6,0,2.9,2.9,2.7
COc1cc2c(Oc3ccc(NC(=O)C4(C(=O)Nc5ccc(F)cc5)CC4)cc3F)ccnc2cc1OCCCN1CCOCC1 [Foretinib],3.2,2.6,2.2,3.1,0,5.1,2.6,0.9
Cc1sc2c(c1C)C(c1ccc(Cl)cc1)=N[C@@H](CC(=O)Nc1ccc(OCCOCCOCCOCCNc3cccc4c3C(=O)N(C3CCC(=O)NC3=O)C4=O)cc1)c1nnc(C)n1-2 (stereo partly drawn) [ARV-825],4.8,8.3,0,4.7,2.9,14.2,3.4,6.1
O=C(O)CNC(=O)c1c(O)c2ccccc2n(Cc2ccccc2)c1=O [IOX-2],0,0,0.2,0,0,0,0,0
N#Cc1ccnc(N2C(=O)CC[C@H]2C(=O)N(c2cncc(F)c2)[C@H](C(=O)NC2CC(F)(F)C2)c2ccccc2Cl)c1 [Ivosidenib],0,0,0,0,0,0,0,0.3
Cc1ccc(NC(=O)c2ccc(CN3CCN(C)CC3)cc2)cc1Nc1nc(-c2cccnc2)cs1 [Masitinib],4.3,3.3,5.7,6.4,2.1,2.3,3.5,4.4

Structure (SMILES),drug sensitivity score (FM-MEL-3),drug sensitivity score (WM165),drug sensitivity score (WM852),drug sensitivity score (FM-MEL-2),drug sensitivity score (SK-MEL-2),drug sensitivity score (Bowes),drug sensitivity score (SK-MEL-28),drug sensitivity score (FM-MEL-6)
CNC(=O)c1ccc(N2C(=S)N(c3cnc(C#N)c(C(F)(F)F)c3)C(=O)C23CCC3)cc1F [Apalutamide],0,0,0,0,0,0,0,0
COc1ccccc1S(=O)(=O)Nc1ccc2c(c1)CN(C)C(=O)N2 [PFI-1],6,6.2,0.1,4.7,0.1,4,2.8,4.1
Nc1ccccc1NC(=O)c1ccc(CNC(=O)OCc2cccnc2)cc1 [Entinostat],6.6,11.4,0.1,4.5,7.9,1.8,8.7,8.2
Nc1nccc(-c2c(-c3ccc(F)cc3)ncn2C2CCCCC2)n1,0,0,0,0,0,0,0,0
Cn1ncc(Cl)c1-c1cc(C(=O)N[C@H](CN)Cc2ccc(F)c(F)c2)oc1Cl [Uprosertib],0,1.1,0,1.2,0,0,0.5,0
CCNC(=O)C[C@@H]1N=C(c2ccc(Cl)cc2)c2cc(OC)ccc2-n2c(C)nnc21 [Molibresib],4.8,6.5,0,3.8,0.5,3.8,1.8,5
CCn1cc(-c2ccnc3[nH]c(-c4cccc(CN(C)C)c4)cc23)c(-c2ccc(NC(=O)N(C)C)cc2)n1,0,6,0,0,0,2.7,0.1,0
CNC(=O)c1cc(COc2nnc(Nc3ccc(Cl)cc3)c3ccoc23)ccn1 [Telatinib],0,0,0.3,0,0,0,0,0.1
COc1ccc(CCc2nc3cc(-c4c(C)noc4C)ccc3n2C[C@H](C)N2CCOCC2)cc1Cl [SGC-CBP30],7.4,5.2,0,4.9,0.1,3.6,0.9,3
CC(C)(C)NC(=O)[C@H]1CC[C@H]2[C@@H]3CC[C@H]4NC(=O)C=C[C@]4(C)[C@H]3CC[C@]12C [Finasteride],0,0,0,0,0,0,0,0
CNC(=O)c1ccccc1Sc1ccc2c(/C=C/c3ccccn3)n[nH]c2c1 [Axitinib],2.6,4.6,0.1,2.1,0,0.1,0.1,0
COCC1(CO)C(=O)C2CCN1CC2 (stereo not drawn) [APR-246],0,0,0,0,0,0,0,0
CON(C)C(=O)N1N=C(c2cc(F)ccc2F)S[C@@]1(CCCN)c1ccccc1 [Filanesib],10,17.4,23.3,4.7,16.5,12.5,4.5,11.3
CCc1c(C(=O)C(N)=O)c2c(OCC(=O)O)cccc2n1Cc1ccccc1 [Varespladib],0,0,0,0,0,0,0,0
CC(C)N(CCCNC(=O)Nc1ccc(C(C)(C)C)cc1)C[C@H]1O[C@@H](n2cc(Br)c3c(N)ncnc32)[C@H](O)[C@@H]1O [SGC0946],6.1,0,2,1.4,0,0,0,0.8
COc1cc2ncnc(Nc3cccc(Cl)c3F)c2cc1OC(=O)N1CCN(C)C[C@H]1C [AZD3759],0,0,0,0,0,0,0,0
O=C1Cc2cc(C(=O)NC3C[C@H]4CC[C@@H](C3)N4S(=O)(=O)CC3CCN(CCCC(F)(F)F)CC3)c(Cl)cc2N1 (stereo partly drawn),0.7,0,0,0,0,0.3,0.2,0
COc1ccc(Cn2ccc3ccc(C(=O)NO)cc32)cc1,0.3,1.6,0.6,0,0,0,0.2,0
